The values that follow come from patent US20150011508A1, “COMPOUNDS AND COMPOSITIONS AS C-KIT KINASE INHIBITORS” (priority 2011, published 2015).

In the assay the target is T1, c-kit (Homo sapiens, UniProt P10721).
T1 construct: human Mo7e cells which endogenously express c-kit; endogenous in cells; host or cells: human Mo7e cells (SCF-dependent promegakaryocytic leukemia line)
T1 sequence (P10721 26-976): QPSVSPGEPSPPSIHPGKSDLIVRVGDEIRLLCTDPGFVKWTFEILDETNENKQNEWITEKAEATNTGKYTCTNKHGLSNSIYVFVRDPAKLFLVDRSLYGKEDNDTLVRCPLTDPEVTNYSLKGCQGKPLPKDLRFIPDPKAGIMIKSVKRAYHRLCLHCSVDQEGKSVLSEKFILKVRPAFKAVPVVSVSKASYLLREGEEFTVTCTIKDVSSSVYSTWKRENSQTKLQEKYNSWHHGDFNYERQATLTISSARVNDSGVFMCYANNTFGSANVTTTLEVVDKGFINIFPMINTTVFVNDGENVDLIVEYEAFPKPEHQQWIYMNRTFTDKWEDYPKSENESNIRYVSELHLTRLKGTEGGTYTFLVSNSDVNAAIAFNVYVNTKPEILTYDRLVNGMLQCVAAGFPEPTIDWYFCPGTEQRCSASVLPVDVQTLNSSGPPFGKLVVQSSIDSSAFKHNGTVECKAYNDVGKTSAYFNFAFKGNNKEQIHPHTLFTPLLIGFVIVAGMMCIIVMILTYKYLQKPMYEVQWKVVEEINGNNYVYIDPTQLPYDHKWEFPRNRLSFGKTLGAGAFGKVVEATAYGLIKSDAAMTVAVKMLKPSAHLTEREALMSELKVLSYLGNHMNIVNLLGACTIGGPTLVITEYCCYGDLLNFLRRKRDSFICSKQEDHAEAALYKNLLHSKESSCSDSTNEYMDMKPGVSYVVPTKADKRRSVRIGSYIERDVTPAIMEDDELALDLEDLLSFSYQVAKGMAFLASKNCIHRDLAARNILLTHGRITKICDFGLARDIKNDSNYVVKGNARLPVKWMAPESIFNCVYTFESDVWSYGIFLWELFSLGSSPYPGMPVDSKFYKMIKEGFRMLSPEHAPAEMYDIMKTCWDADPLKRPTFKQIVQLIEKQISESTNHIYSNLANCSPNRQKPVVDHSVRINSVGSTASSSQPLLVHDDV
Kind of assay: Mo7e cell proliferation assay (SCF dependent proliferation). It counts as cell-based. The note with it: Table 1; human Mo7e cells stimulated with human recombinant SCF, 48 h, CellTiter Glo; 1% FBS (footnote). In a few lines:
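SCF-dependent proliferation of human Mo7e cells, which express c-kit endogenously, was measured after 48 h at 37° C by CellTiter Glo luminescence. IC50 was taken as the concentration giving a response halfway between the baseline and maximum responses.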
Consider `Cc1ccn2c(C(=O)Nc3cc(-c4noc(CCC(O)C(F)(F)F)n4)ccc3C)cnc2c1` (stereo not shown) [F253], for which the IC50 was 13 nM.

`Cc1ccn2c(C(=O)Nc3cc(-c4noc(CC(O)(C(F)(F)F)C(F)(F)F)n4)ccc3C)cnc2c1` [F254]: the IC50 came out at 51 nM.

Consider `Cc1nc(-c2ccc(C)c(NC(=O)c3cnc4ccc(-c5c(C)nn(CCO)c5C)cn34)c2)no1` [F255, 6-(1-(2-hydroxyethyl)-3,5-dimethyl-1H-pyrazol-4-yl)-N-(2-methyl-5-(5-methyl-1,2,4-oxadiazol-3-yl)phenyl)imidazo[1,2-a]pyridine-3-carboxamide], for which the IC50 was 16 nM.

In the case of `CC(=O)c1sc(-c2ccc3ncc(C(=O)Nc4cc(-c5noc(C)n5)ccc4C)n3c2)nc1C` [F256, 6-(5-acetyl-4-methylthiazol-2-yl)-N-(2-methyl-5-(5-methyl-1,2,4-oxadiazol-3-yl)phenyl)imidazo[1,2-a]pyridine-3-carboxamide], the IC50 stood at 54 nM.

On to `Cc1nc(-c2ccc(C)c(NC(=O)c3cnc4ccc(-c5c[nH]nc5C)cn34)c2)no1` [F257, 6-(3-methyl-1H-pyrazol-4-yl)-N-(2-methyl-5-(5-methyl-1,2,4-oxadiazol-3-yl)phenyl)imidazo[1,2-a]pyridine-3-carboxamide], for which the IC50 is 19 nM.

For `CNC(=O)c1sc(-c2ccc3ncc(C(=O)Nc4cc(-c5noc(C)n5)ccc4C)n3c2)nc1C` [F258, N,4-dimethyl-2-(3-((2-methyl-5-(5-methyl-1,2,4-oxadiazol-3-yl)phenyl)carbamoyl)imidazo[1,2-a]pyridin-6-yl)thiazole-5-carboxamide], the IC50 worked out at 65 nM.

Turning to `Cc1nc(-c2ccc(C)c(NC(=O)c3cnc4ccc(-c5nc(C)c(C(N)=O)s5)cn34)c2)no1` [F259, 4-methyl-2-(3-((2-methyl-5-(5-methyl-1,2,4-oxadiazol-3-yl)phenyl)carbamoyl)imidazo[1,2-a]pyridin-6-yl)thiazole-5-carboxamide], the IC50 stood at 89 nM.

Consider `CNC(=O)Cn1nc(C)c(-c2ccc3ncc(C(=O)Nc4cc(-c5noc(C)n5)ccc4C)n3c2)c1C` [F260, 6-(3,5-dimethyl-1-(2-(methylamino)-2-oxoethyl)-1H-pyrazol-4-yl)-N-(2-methyl-5-(5-methyl-1,2,4-oxadiazol-3-yl)phenyl)imidazo[1,2-a]pyridine-3-carboxamide], for which the IC50 came to 32 nM.

For the compound `CCOC(=O)c1nc(C)c(-c2ccc3ncc(C(=O)Nc4cc(-c5noc(C)n5)ccc4C)n3c2)s1` [F261, ethyl 4-methyl-5-(3-((2-methyl-5-(5-methyl-1,2,4-oxadiazol-3-yl)phenyl)carbamoyl)imidazo[1,2-a]pyridin-6-yl)thiazole-2-carboxylate], the IC50 came out at 83 nM.

Take `Cc1nc(-c2ccc(C)c(NC(=O)c3cnc4ccc(-c5sc(C(=O)NCCN6CCOCC6)nc5C)cn34)c2)no1` [F262, 4-methyl-5-(3-((2-methyl-5-(5-methyl-1,2,4-oxadiazol-3-yl)phenyl)carbamoyl)imidazo[1,2-a]pyridin-6-yl)-N-(2-morpholinoethyl)thiazole-2-carboxamide]: the IC50 came to 75 nM.

With `Cc1nc(-c2ccc(C)c(NC(=O)c3cnc4ccc(-c5sc(C(=O)NCCO)nc5C)cn34)c2)no1` [F263, N-(2-hydroxyethyl)-4-methyl-5-(3-((2-methyl-5-(5-methyl-1,2,4-oxadiazol-3-yl)phenyl)carbamoyl)imidazo[1,2-a]pyridin-6-yl)thiazole-2-carboxamide], the IC50 is 58 nM.

For the compound `Cc1nc(-c2ccc(C)c(NC(=O)c3cnc4ccc(-c5sc(C(N)=O)nc5C)cn34)c2)no1` [F264, 4-methyl-5-(3-((2-methyl-5-(5-methyl-1,2,4-oxadiazol-3-yl)phenyl)carbamoyl)imidazo[1,2-a]pyridin-6-yl)thiazole-2-carboxamide], the IC50 was determined as 38 nM.

Consider `Cc1nc(-c2ccc(C)c(NC(=O)c3cnc4ccc(-c5sc(CO)nc5C)cn34)c2)no1` [F265, 6-(2-(hydroxymethyl)-4-methylthiazol-5-yl)-N-(2-methyl-5-(5-methyl-1,2,4-oxadiazol-3-yl)phenyl)imidazo[1,2-a]pyridine-3-carboxamide], for which the half-maximal inhibitory concentration (IC50) worked out at 8 nM.

Consider `Cc1ccc(-c2noc(C(C)OCC(F)(F)F)n2)cc1NC(=O)c1cnc2ccccn12` (stereo not shown) [F266], for which the IC50 turned out to be 11 nM.

In the case of `Cc1ccn2c(C(=O)Nc3cc(-c4noc(CCC(C)(OC(=O)[C@H](C)N)C(F)(F)F)n4)ccc3C)cnc2c1` (stereo partly drawn) [F271, (2S)-1,1,1-trifluoro-2-methyl-4-(3-(4-methyl-3-(7-methylimidazo[1,2-a]pyridine-3-carboxamido)phenyl)-1,2,4-oxadiazol-5-yl)butan-2-yl 2-aminopropanoate], the IC50 stood at 8 nM.

Regarding “(S)-1,1,1-trifluoro-2-methyl-4-(3-(4-methyl-3-(7-methylimidazo[1,2-a]pyridine-3-carboxamido)phenyl)-1,2,4-oxadiazol-5-yl)butan-2-yl dihydrouen phosphate [F268]”, the IC50 came to 26 nM.
